Measurements published in article PMC4157579, “Lysine Acetylation Controls Local Protein Conformation by Influencing Proline Isomerization” (Molecular Cell, 2014).
Ends that are not written are not given here. * marks the point of attachment. pNA = O=[N+]([O-])c1ccc(N*)cc1

Columns and labels:
[1] = tested on: Spt7 bromodomain (residues 363–619); assay: SPR binding of H3 peptides to immobilized Spt7 bromodomain; design: species or system yeast; details: SPR, Biacore T100/T200, 25°C, peptides 1-200 µM in HBS-P+, NTA chip-captured His-tagged bromodomain, 1:1 model; Figure 6A, n = 2–11
Source text: (§1) We developed a second assay that involves monitoring the effect of the P16V substitution on the binding of the Spt7 bromodomain to an H3 peptide modified by acetylation at K14 and/or K18 using surface plasmon resonance (SPR) (Figures 6A, S4A, and S4B) or by pull downs (Figures 6B and S4C). Bromodomains are acetyl-lysine binding domains, found in a number of chromatin-associated proteins ([Taverna et al., 2007]) including Spt7. The function and binding specificity of the Spt7 bromodomain are currently unknown, but it preferentially interacts with hyperacetylated histones in vitro ([Hassan et al., 2007]). […] The binding of the Spt7 bromodomain to the P16V-substituted K18ac peptide improved binding by ∼2-fold. […] We reasoned that this could reflect an effect of the side chain on binding or an influence on the conformation of the A15-P16 bond. […] The corollary of this is that acetylation of K14 would correlate with the A15-P16 bond in the trans configuration, supporting ideas that the peptidyl-prolyl bond conformation is mainly determined by local effects in proteins ([Reimer et al., 1998]).
(§2) Figure 6 K14ac Promotes P16trans (A) Relative binding ± SEM (n = 2–11) assessed by surface plasmon resonance of purified recombinant Spt7 bromodomain (residues 363–619) to the indicated H3 peptides (11–26). (B) Coomassie-stained gel showing a pull-down experiment, quantified relative to the K18ac peptide, with the indicated H3 peptides and the purified recombinant Spt7 bromodomain (n = 3). (C) A chymotrypsin-coupled assay for proline isomers using synthetic hexamers based on GGKAPF-pNA (unmodified). pNA is released by chymotrypsin cleavage only from the trans-proline-containing peptide. (D) K14ac and substitutions at K14 influence isomerization at A15-P16 and pNA release, expressed as mean initial rate ± SEM (n = 4–5) over the first 0.6–10.2 s of the reaction. (E) Schematic showing how K14ac or the K14R substitution influence A15-P16 conformation. (F) Schematic showing how dynamic K14ac influences A15-P16 conformation and K4me3 (K4 and K14 denote that these residues are not trimethylated or acetylated respectively). (G) The balance of positive-acting factors (right panel) and negative-acting factors (left panel) controls levels of K4me3 at individual genes. […] See also Figure S4. […]
(n=5771) with the ratios of H3-normalised K4me3 in the K14A and P16V strains relative to the WT strain. Genes with ratios > 2 (n = 7 and 4 for K14A/WT and P16V/WT respectively) have been removed for clarity. Highlighted are the genes with the 200 highest and lowest ratios selected for further analysis (K14/P16-independent and K14/P16-dependent gene classes respectively). (C) Overlap (%) between the four selected gene classes from Figure S3B and the genes temporally expressed during the yeast metabolic cycle (YMC: OX, oxidative; R/B, reductive building; R/C, reductive charging phase), induced/repressed by the environmental stress response (ESR), classed as ribosomal protein genes (RPGs) or ribosome biogenesis genes (Ribis), or regulated predominantly by SAGA or TFIID. […]
YMC and ESR expression data were taken from (Tu et al., 2005) and (Gasch et al., 2000) respectively. SAGA/TFIID-regulated genes were obtained from (Huisinga and Pugh, […]
Figure S4. (Related to Figure 6)
(A) Surface plasmon resonance (SPR) affinity fits for the indicated H3 peptides encompassing residues 11-26 binding to the Spt7 bromodomain (residues 363-619). Also shown is a typical sensorgram of H3 peptide binding to the Spt7 bromodomain […]
values ± SEM for Spt7 binding to variously-modified H3 peptides. (C) A peptide pull-down experiment with a range of H3 peptides and the WT or substituted Spt7 bromodomain […]
Peptides for bromodomain interaction studies
Peptides were synthesized at GL Biochem (Shanghai) LTD, China and Proteogenix, France.
(§3) Purity was determined with MALDI-TOF mass spectrometry and HPLC and the peptides used […]
The peptide sequences are listed in the […]

[2] = tested on: Spt7 bromodomain (residues 363–619); assay: Peptide pull-down with Spt7 bromodomain; format: binding, yeast
Source text: as §1, §2
(n=5771) with the ratios of H3-normalised K4me3 in the K14A and P16V strains relative to the WT strain. Genes with ratios > 2 (n = 7 and 4 for K14A/WT and P16V/WT respectively) have been removed for clarity. Highlighted are the genes with the 200 highest and lowest ratios selected for further analysis (K14/P16-independent and K14/P16-dependent gene classes respectively). […]
as §3

[3] = tested on: bromodomain carrying alanine substitutions (Y500A/Y520A/N521A); assay: Peptide pull-down with substituted Spt7 bromodomain; format: binding, yeast; details: bromodomain with alanine at Y500, Y520 and N521, Figure S4C
Source text: as §1, with “1998]). […]” for “1998]).”
bin expressed as a proportion of the total K4me3 across the gene. […] P values were calculated from a simulated probability distribution curve. […]
as §3

chymotrypsin = assay: Chymotrypsin-coupled proline isomerization assay (pNA release); format: biochemical; details: 10 μl of 7.8 mM pNA peptide per 1 ml, 395 nm, every 0.6 s for 20 s, first 0.6–10.2 s, mean initial rate, n = 4–5
Source text: Figure 6 K14ac Promotes P16trans (A) Relative binding ± SEM (n = 2–11) assessed by surface plasmon resonance of purified recombinant Spt7 bromodomain (residues 363–619) to the indicated H3 peptides (11–26). (B) Coomassie-stained gel showing a pull-down experiment, quantified relative to the K18ac peptide, with the indicated H3 peptides and the purified recombinant Spt7 bromodomain (n = 3). (C) A chymotrypsin-coupled assay for proline isomers using synthetic hexamers based on GGKAPF-pNA (unmodified). pNA is released by chymotrypsin cleavage only from the trans-proline-containing peptide. (D) K14ac and substitutions at K14 influence isomerization at A15-P16 and pNA release, expressed as mean initial rate ± SEM (n = 4–5) over the first 0.6–10.2 s of the reaction. (E) Schematic showing how K14ac or the K14R substitution influence A15-P16 conformation. […]
Saccharomyces cerevisiae strains used in this study are shown in Supplemental Experimental Procedures. […] Quantitation was performed using ImageJ software. […] The P16 proline isomerase assay was performed as described ([Shan et al., 1994]) using 10 μl of 7.8 mM pNA peptide (Proteogenix) solution per 1 ml assay reaction and pNA release monitored at 395 nm. […] Sensorgrams, binding curves, and Kd values were analyzed with BIA T100 and T200 evaluation software (GE Healthcare) using a 1:1 binding model. […]

With “TGGKAPR(Kac)QLASKAARC [K18ac, H3 peptide (11–26) acetylated at K18]” the “Binding to Spt7 bromodomain” value [1] was “specifically recognized acetylated K18”, the “Binding to Spt7 bromodomain” value ([2]; SulfoLink resin, bromodomain 30 µg/ml, 2 h at 4°C, Coomassie gel, relative to K18ac peptide, Figure 6B, n = 3) was “specifically recognized acetylated K18” and the “Enrichment of binding over the unmodified peptide” value ([2]; WT versus Y500A/Y520A/N521A bromodomain, Figure S4C) was “enriched”. For the same substance, the “Binding to substituted Spt7 bromodomain” value [3] was “lack of binding”.
For GGKAPF-pNA [unmodified peptide], the “Initial rate of cleavage (pNA release)” value (chymotrypsin) was “comparable to that reported previously in a similar assay”.
